Results reported in US20090233895A1, “METHOD OF TREATMENT OF BACTERIAL INFECTIONS” (Ethypharm, priority 2006, published 2009).

Assays:
[1] = cefaclor concentration profile (t1/2, cmax) observed in the modified Hollow T-Tube in vitro model
Method: (§1) The counting of E. coli present in the culture medium was measured in vitro in a model simulating the antibacterial treatment with oral beta-lactamine in humans over 24 hours.
(§2) The model simulating the antibacterial treatment used in the examples is a modified “Hollow T-Tube”-model, originally described by Cappellety et al. (Pharmacodynamics of ceftazidime administered as continuous infusion or intermittent bolus alone or in combination with single daily-dose amikacine against Pseudomonas aeruginosa in an in vitro infection model, A.A.C., 1995, 33: 1797-1801) and modified by the inventors (Louchahi et al. A procedure to mimic human impaired kinetic profiles of antibiotics with the hollow glass T-tube in vitro pharmacodynamic model, Abstract no 2116, p. 234, 39th ICAAC, Sep. 26-29, 1999, San Francisco).
Three different elimination half-lives were simulated: • 1. t1/2=45-50 min, which corresponds to a conventional immediate release form of cefaclor, • 2. t1/2=55-60 min, which corresponds to a conventional sustained release form of cefaclor, • 3. t1/2=90-100 min, which corresponds to an extended release form of cefaclor according to the present invention.

E. coli GR2 = assay: modified Hollow T-Tube in vitro model simulating antibacterial treatment with oral cefaclor in humans over 24 hours; type: cell-based, Escherichia coli; conditions: for Observed Δt > MIC / Δt > MIC: percentage of the dosage interval
Method: The bacteria stem from one strain of Escherichia coli, species that is considered to be non-constantly sensitive. The strain was obtained from M.-H. Nicolas (Hôpital Ambroise Paré, Paris, France) under the code E. coli GR2 with MIC of […]. The usual breakpoints with cefaclor for E. coli are ≦2 mg/l for sensitive strains and >8 mg/l for resistant strains, according to CA-SFM (Comité de l'Antibiogramme de la Société Française de Microbiologie).
The culture media is a Müller-Hinton Broth (MHB) obtained from Pasteur diagnostic (reference 69444). The starting inoculum of E. coli in the culture media is 10^7±5% CFU/ml. The E. coli concentration is measured by nephelometry (Densimat, ref. 99535 ver. A, Biomérieux, France) and standard dilution method.
as §1, §2
In all experiments the period during which, after the addition of cefaclor, the concentration of cefaclor was above the MIC was measured (Δt>MIC). The result is expressed as percentage of the dosage interval.
The variation of the bacterial count was regularly registered during 24 hours. The result is expressed as ΔUFC/ml. For every experiment, the negative sign is highlighting the decreasing count with time since it corresponds to the difference between the initial inoculum at T0 and final bacterial count at T 24 h.

[2] = E1.1: expected t1/2 45-50 min, 500 mg, interval 8 h
[3] = E1.2: expected t1/2 55-60 min, 750 mg, interval 12 h
[4] = E1.3: expected t1/2 90-100 min, 500 mg, interval 8 h
[5] = E1.4: expected t1/2 90-100 min, 750 mg, interval 12 h
[6] = E1.5: expected t1/2 90-100 min, 750 mg, interval 8 h
[7] = E2.1: simulated poor absorber, 500 mg, interval 8 h
[8] = E2.2: simulated standard absorber, 500 mg, interval 8 h
[9] = E2.3: simulated good absorber, 500 mg, interval 8 h

N[C@@H](C(=O)N[C@@H]1C(=O)N2C(C(=O)O)=C(Cl)CS[C@H]12)c1ccccc1 [cefaclor, cefaclor monohydrate]
Observed t1/2 ([1]; E1.1: expected t1/2 45-50 min, 500 mg cefaclor, dosage interval 8 h): 0.767 h
Observed t1/2 ([1]; E1.2: expected t1/2 55-60 min, 750 mg cefaclor, dosage interval 12 h): 0.967 h
Observed t1/2 ([1]; E1.3: expected t1/2 90-100 min, 500 mg cefaclor, dosage interval 8 h): 1.67 h
Observed t1/2 ([1]; E1.4: expected t1/2 90-100 min, 750 mg cefaclor, dosage interval 12 h): 1.68 h
Observed t1/2 ([1]; E1.5: expected t1/2 90-100 min, 750 mg cefaclor, dosage interval 8 h): 1.53 h
Observed t1/2 ([1]; E2.1: simulated poor absorber, expected t1/2 90-100 min, 500 mg, interval 8 h): 1.6 h
Observed t1/2 ([1]; E2.2: simulated standard absorber, expected t1/2 90-100 min, 500 mg, interval 8 h): 1.67 h
Observed t1/2 ([1]; E2.3: simulated good absorber, expected t1/2 90-100 min, 500 mg, interval 8 h): 1.53 h
Δ UFC/ml by 24 h (E. coli GR2; [2]): −1.5 log
Observed Δt > MIC (E. coli GR2; [2]): 50%
Δ UFC/ml by 24 h (E. coli GR2; [3]): −1.5 log
Observed Δt > MIC (E. coli GR2; [3]): 30-35%
Δ UFC/ml by 24 h (E. coli GR2; [4]): −4 log
Observed Δt > MIC (E. coli GR2; [4]): 75%
Δ UFC/ml by 24 h (E. coli GR2; [5]): −1.5 log
Observed Δt > MIC (E. coli GR2; [5]): 58%
Δ UFC/ml by 24 h (E. coli GR2; [6]): >−5 log
Observed Δt > MIC (E. coli GR2; [6]): 87%
Δ UFC/ml by 24 h (E. coli GR2; [7]): −3 log
Δt > MIC (E. coli GR2; [7]): 50%
Δ UFC/ml by 24 h (E. coli GR2; [8]): −4 log
Δt > MIC (E. coli GR2; [8]): 75%
Δ UFC/ml by 24 h (E. coli GR2; [9]): −5 log
Δt > MIC (E. coli GR2; [9]): 87%
